What was measured:
Test in all cases: drug sensitivity score (DSS3, normalised partial AUC of % inhibition dose-response) (DSS (score)); higher = more sensitive (stronger inhibition of viability); extreme values may be limits of the assay
[1] = system: FMOC25_1 (patient-derived low-grade serous ovarian cancer cells); conditions: 72 h; library: FO4B; assay format: 2D, 384-well, CellTiter-Glo
In short: (§1)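 On 384-well flat clear-bottom plates carrying compounds at five concentrations across a 10,000-fold range, patient-derived ovarian cancer cells below passage 10 were incubated for 72 h at 37 °C with 5% CO2. CellTiter-Glo readout of viability was processed in Breeze. A higher drug sensitivity score, defined as the partial area under the percent-inhibition dose-response curve divided by the log of the upper asymptote, means greater sensitivity.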

[2] = system: FMOC04 (patient-derived high-grade serous ovarian cancer cells); conditions: 72 h; library: FO5A; assay format: 2D, 384-well, CellTiter-Glo
In short: as §1

[3] = system: FMOC06 (patient-derived mucinous ovarian cancer cells); conditions: 72 h; library: FO5A; assay format: 2D, 384-well, CellTiter-Glo
In short: as §1

[4] = system: FMOC27 (patient-derived low-grade serous ovarian cancer cells); conditions: 72 h; library: FO5A; assay format: 2D, 384-well, CellTiter-Glo
In short: as §1

[5] = system: FMOC28 (patient-derived low-grade serous ovarian cancer cells); conditions: 72 h; library: FO5A; assay format: 2D, 384-well, CellTiter-Glo
In short: as §1

[6] = system: FMOC09 (patient-derived high-grade serous ovarian cancer cells); conditions: 72 h; library: FO5A; assay format: 2D, 384-well, CellTiter-Glo
In short: as §1

[7] = system: FMOC17 (patient-derived low-grade serous ovarian cancer cells); conditions: 72 h; library: FO5A; assay format: 2D, 384-well, CellTiter-Glo
In short: as §1

[8] = system: FMOC22 (patient-derived mucinous ovarian cancer cells); conditions: 72 h; library: FO5A; assay format: 2D, 384-well, CellTiter-Glo
In short: as §1

[9] = system: FMOC03 (patient-derived mucinous ovarian cancer cells); conditions: 72 h; library: FO5A; assay format: 2D, 384-well, CellTiter-Glo
In short: as §1

[10] = system: FMOC11 (patient-derived high-grade serous ovarian cancer cells); conditions: 72 h; library: FO5A; assay format: 2D, 384-well, CellTiter-Glo
In short: as §1

[11] = system: FMOC14 (patient-derived high-grade serous ovarian cancer cells); conditions: 72 h; library: FO5A; assay format: 2D, 384-well, CellTiter-Glo
In short: as §1

[12] = system: FMOC02_1 (patient-derived low-grade serous ovarian cancer cells); conditions: 72 h; library: FO5A; assay format: 2D, 384-well, CellTiter-Glo
In short: as §1

[13] = system: FMOC02_3 (patient-derived low-grade serous ovarian cancer cells); conditions: 72 h; library: FO5A; assay format: 2D, 384-well, CellTiter-Glo
In short: as §1

[14] = system: FMOC25_2 (patient-derived low-grade serous ovarian cancer cells); conditions: 72 h; library: FO5A; assay format: 2D, 384-well, CellTiter-Glo
In short: as §1

[15] = system: FMOC02_2 (patient-derived low-grade serous ovarian cancer cells); conditions: 72 h; library: FO5A; assay format: 2D, 384-well, CellTiter-Glo
In short: as §1

[16] = system: FMOC24 (patient-derived high-grade serous ovarian cancer cells); conditions: 72 h; library: FO5A; assay format: 2D, 384-well, CellTiter-Glo
In short: as §1

Structure (SMILES) | drug sensitivity score [1] | drug sensitivity score [2] | drug sensitivity score [3] | drug sensitivity score [4] | drug sensitivity score [5] | drug sensitivity score [6] | drug sensitivity score [7] | drug sensitivity score [8] | drug sensitivity score [9] | drug sensitivity score [10] | drug sensitivity score [11] | drug sensitivity score [12] | drug sensitivity score [13] | drug sensitivity score [14] | drug sensitivity score [15] | drug sensitivity score [16]
Cc1ccc(-n2nc(C(C)(C)C)cc2NC(=O)Nc2ccc(OCCN3CCOCC3)c3ccccc23)cc1 [Doramapimod] | 0.8 | 0 | 0 | 0.1 | 7.1 | 0.8 | 0.4 | 0.3 | 0 | 2.4 | 0 | 0.1 | 0 | 0.1 | 0 | 1.85
Cc1cn(-c2cc(NC(=O)c3ccc(C)c(Nc4nccc(-c5cccnc5)n4)c3)cc(C(F)(F)F)c2)cn1 [Nilotinib] | 3.4 | 0 | 3.4 | 2.3 | 5.6 | 0.7 | 2.4 | 1 | 3.5 | 4.6 | 0.9 | 3 | 0 | 1.5 | 1.3 | 3.7
Clc1ccc(Nc2nnc(Cc3ccncc3)c3ccccc23)cc1 [Vatalanib] | 0 | 0 | 0 | 0 | 3 | 0 | 0 | 0 | 0.2 | 0 | 0 | 0.2 | 0 | 0.7 | 0.9 | 2.8
CCCCCOC(=O)Nc1nc(=O)n([C@@H]2O[C@H](C)[C@@H](O)[C@H]2O)cc1F [Capecitabine] | 0 | 1.95 | 0 | 0 | 0 | 0 | 0.5 | 2.5 | 0.4 | 0.1 | 0.7 | 0 | 0 | 0.7 | 0 | 0.6
Cn1ncnc1[C@H]1c2n[nH]c(=O)c3cc(F)cc(c23)N[C@@H]1c1ccc(F)cc1 [Talazoparib] | 4.8 | 0.25 | 2.2 | 5.5 | 0.7 | 0.9 | 2.7 | 3.5 | 0.1 | 1.4 | 0.7 | 7 | 5.7 | 5.7 | 2.3 | 4.1
CC(C)(C)c1cc(NC(=O)Nc2ccc(-c3cn4c(n3)sc3cc(OCCN5CCOCC5)ccc34)cc2)no1 [Quizartinib] | 0.7 | 0.45 | 0.3 | 0.5 | 0.3 | 0 | 1 | 0 | 0.8 | 0 | 0 | 2 | 0.6 | 0.6 | 0.7 | 3.85
C[C@]12CC[C@@H]3c4ccc(O)cc4C[C@@H](CCCCCCCCC[S+]([O-])CCCC(F)(F)C(F)(F)F)[C@H]3[C@@H]1CC[C@@H]2O (some centres undefined) [Fulvestrant] | 0 | 0 | 0 | 0 | 0 | 0 | 0 | 0 | 0 | 0 | 0 | 0 | 0 | 0 | 0 | 0
COc1nc(N)nc2c1ncn2[C@@H]1O[C@H](CO)[C@@H](O)[C@@H]1O [Nelarabine] | 0 | 0 | 1.7 | 0 | 0 | 0 | 0 | 0 | 0 | 0 | 0 | 0 | 0 | 0 | 0 | 1.75
CC(C)(C)c1nc(-c2cccc(NS(=O)(=O)c3c(F)cccc3F)c2F)c(-c2ccnc(N)n2)s1 [Dabrafenib] | 1.8 | 0 | 0 | 0 | 1.4 | 0 | 0.1 | 0 | 0 | 0 | 0 | 5.9 | 4.7 | 4 | 0.8 | 0
COc1cc2nccc(Oc3ccc(NC(=O)Nc4cc(C)on4)c(Cl)c3)c2cc1OC [Tivozanib] | 1.9 | 0.3 | 2.3 | 1.5 | 0.5 | 0.4 | 2.8 | 1.2 | 2.2 | 1.9 | 0.5 | 5 | 3.3 | 3.2 | 3 | 0.9
CC(C)(C#N)c1cc(Cn2cncn2)cc(C(C)(C)C#N)c1 [Anastrozole] | 0 | 0 | 0 | 0 | 0 | 0 | 0 | 0 | 0 | 0 | 0 | 0 | 0 | 0 | 0 | 0
NC1(c2ccc(-c3nc4ccn5c(=O)[nH]nc5c4cc3-c3ccccc3)cc2)CCC1 [MK-2206] | 4.9 | 1.75 | 4.8 | 1.5 | 5.5 | 2.7 | 4.2 | 0.8 | 2.5 | 0.9 | 2 | 4.9 | 6.9 | 3 | 7.5 | 1.5
Nc1cc(F)ccc1NC(=O)/C=C/c1cnn(C/C=C/c2ccccc2)c1 [RGFP966] | 0 | 0.6 | 2 | 0.6 | 4.6 | 0 | 0.9 | 1.4 | 2.9 | 3.2 | 1.9 | 3.1 | 3.5 | 2.5 | 2.9 | 2.9
O=C(c1ccc(OCCN2CCCCC2)cc1)c1c(-c2ccc(O)cc2)sc2cc(O)ccc12 [Raloxifene] | 1.7 | 1.95 | 4.5 | 0.2 | 0 | 0.7 | 1.8 | 1.2 | 0.7 | 2.9 | 2.6 | 5.5 | 4.5 | 3.7 | 5.8 | 8.45
Nc1nccc(-c2c(-c3ccc(F)cc3)ncn2C2CCCCC2)n1 | 1.7 | 0.05 | 0.1 | 1 | 6.9 | 0 | 1.6 | 0.4 | 1.6 | 2.5 | 0.2 | 4.9 | 1.1 | 1.8 | 3.4 | 0.85
C[C@@H]1CN(Cc2ccc(F)cc2)[C@@H](C)CN1C(=O)c1cc2c(C(=O)C(=O)N(C)C)cn(C)c2cc1Cl [Talmapimod] | 0 | 0 | 0 | 0 | 1.2 | 0 | 0 | 0 | 0 | 0.2 | 0 | 0 | 0 | 0 | 0 | 0
CC(C)Cn1cnc2c(N)nc3ccccc3c21 [Imiquimod] | 0 | 0 | 0.5 | 0 | 0.9 | 0 | 0 | 0 | 0 | 0 | 0 | 0 | 0 | 0 | 0 | 0
COc1cc2c(N3CCN(C(=O)Nc4ccc(OC(C)C)cc4)CC3)ncnc2cc1OCCCN1CCCCC1 [Tandutinib] | 0 | 0 | 0 | 0 | 1.4 | 0 | 0 | 0 | 0 | 0 | 0 | 0 | 0 | 0 | 0 | 0.75
N#Cc1ccc2[nH]c(O)c(-c3ccc(CN4CCOCC4)cn3)c2c1 [AZD-1080] | 0 | 0.15 | 0 | 0 | 0 | 0 | 0.4 | 0 | 0 | 0 | 0 | 1.4 | 5.1 | 5.3 | 0 | 1.15
O=c1sn(-c2cccc3ccccc23)c(=O)n1Cc1ccccc1 [Tideglusib] | 0.3 | 0 | 0 | 0 | 0 | 0 | 0 | 0 | 0 | 0 | 0 | 0 | 0 | 0 | 1 | 0
Cc1ccc(C(=O)Nc2ccc(Oc3cc4cnn(C)c4cc3-c3cn[nH]c3)c(F)c2)c(=O)n1-c1ccc(F)cc1 [Merestinib] | 2.7 | 0 | 1.1 | 0 | 1.4 | 1.6 | 0.3 | 0 | 1.3 | 0 | 0 | 1.1 | 4.4 | 4 | 1.9 | 1.15
C=CCc1cccc(/C=N/NC(=O)CN2CCN(Cc3ccccc3)CC2)c1O [PAC-1] | 0.4 | 0 | 3.7 | 0 | 7.1 | 4.8 | 1.3 | 3.5 | 5.6 | 3.1 | 5 | 0 | 0 | 2.1 | 3.6 | 1.2
O=C(O)c1ccc(CN2CCC(CN[C@@H]3C[C@H]3c3ccccc3)CC2)cc1 | 0 | 0.4 | 0 | 0 | 0 | 0 | 0 | 0 | 0 | 0 | 0 | 0.4 | 1.6 | 0 | 0 | 0.9
NC(=O)NO [Hydroxyurea] | 0.5 | 0.8 | 1.9 | 1.6 | 0.9 | 0.9 | 1.1 | 0.7 | 0.7 | 2.9 | 0 | 5.2 | 4.8 | 3.9 | 1.3 | 1.05
